These results are taken from patent US8324232B2, “4-pyrimidinesulfamide derivative” (Actelion Pharmaceuticals Ltd., priority 2007, dated 2012).

The target of series [1] is T1, human recombinant ETA receptors (Homo sapiens, UniProt P25101).
T1 construct: expressed in transfected cells; host or cells: CHO cells (microsomal membranes)
T1 sequence (P25101 21-427): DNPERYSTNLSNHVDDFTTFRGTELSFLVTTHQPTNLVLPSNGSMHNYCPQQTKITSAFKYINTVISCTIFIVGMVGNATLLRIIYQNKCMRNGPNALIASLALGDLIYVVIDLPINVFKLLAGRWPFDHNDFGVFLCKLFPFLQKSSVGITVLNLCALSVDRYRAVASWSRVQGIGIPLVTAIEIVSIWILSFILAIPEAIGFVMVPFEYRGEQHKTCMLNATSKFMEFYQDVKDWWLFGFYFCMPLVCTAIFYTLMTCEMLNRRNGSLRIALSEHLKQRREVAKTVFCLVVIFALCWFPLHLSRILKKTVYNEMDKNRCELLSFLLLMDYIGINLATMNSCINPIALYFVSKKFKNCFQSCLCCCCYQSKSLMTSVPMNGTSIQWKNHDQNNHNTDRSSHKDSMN
In words: Inhibition of endothelin binding to membranes from CHO cells carrying human ETA receptors. On the procedure: 1) Inhibition of Endothelin Binding to Membranes from CHO Cells Carrying Human ET Receptors
For competition binding studies, membranes of CHO cells expressing human recombinant ETA or ETB receptors were used.
All the test compounds were dissolved, diluted and added in DMSO.

Another series has as its target T2, ETA receptors (Rattus norvegicus, UniProt P26684).
T2 construct: The thoracic aorta or trachea were excised, dissected and cut in 3-5 mm rings; from tissue; host or cells: thoracic aorta rings of adult Wistar rats, endothelium removed
T2 sequence (P26684 21-426): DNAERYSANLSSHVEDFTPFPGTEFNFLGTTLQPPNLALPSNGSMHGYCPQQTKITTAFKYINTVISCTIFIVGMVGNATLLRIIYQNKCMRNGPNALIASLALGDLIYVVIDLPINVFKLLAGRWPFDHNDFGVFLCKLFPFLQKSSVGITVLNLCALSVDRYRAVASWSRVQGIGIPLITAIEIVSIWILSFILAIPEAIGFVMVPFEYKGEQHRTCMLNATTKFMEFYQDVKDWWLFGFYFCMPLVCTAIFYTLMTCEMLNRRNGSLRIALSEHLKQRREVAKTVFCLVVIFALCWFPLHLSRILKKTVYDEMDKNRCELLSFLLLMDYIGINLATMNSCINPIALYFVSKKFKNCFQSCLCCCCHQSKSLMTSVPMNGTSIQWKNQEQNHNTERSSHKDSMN
As to the kind of experiment: Inhibition of endothelin-1-induced contraction on isolated rat aortic rings. On the procedure: 2) Inhibition of Endothelin-Induced Contractions on Isolated Rat Aortic Rings (ETA Receptors) and Rat Tracheal Rings (ETB Receptors)
The functional inhibitory potency of the endothelin antagonists was assessed by their inhibition of the contraction induced by endothelin-1 on rat aortic rings (ETA receptors) and of the contraction induced by sarafotoxin S6c on rat tracheal rings (ETB receptors). Adult Wistar rats were anesthetized and exsanguinated. The thoracic aorta or trachea were excised, dissected and cut in 3-5 mm rings. The endothelium/epithelium was removed by gentle rubbing of the intimal surface. Each ring was suspended in a 10 mL isolated organ bath filled with Krebs-Henseleit solution (in mM; NaCl 115, KCl 4.7, MgSO4 1.2, KH2PO4 1.5, NaHCO3 25, CaCl2 2.5, glucose 10) kept at 37° C. and gassed with 95% O2 and 5% CO2. The rings were connected to force transducers and isometric tension was recorded (EMKA Technologies SA, Paris, France). The rings were stretched to a resting tension of 3 g (aorta) or 2 g (trachea). […] The functional inhibitory potency of the test compound was assessed by calculating the concentration ratio, i.e. the shift to the right of the EC50 induced by different concentrations of test compound. […]

Series [2] is described as follows: Pharmacokinetics in the rat after single-dose oral administration. It is filed as in vivo. As to conditions: male Wistar rats, plasma; for half-life: oral gavage 10 mg/kg; for clearance: oral, 10 mg/kg. The procedure:
Pharmacokinetics in the Rat After Single-Dose Oral Administration
Male Wistar rats with a body weight of 200-250 g were used for pharmacokinetic experiments after an acclimatization period of at least 7 days. All animals were housed under conditions in accordance with the NIH guidelines. Two days prior to the experiment, rats were anesthetized with a mixture of ketamin (90 mg/kg) and xylazine 2% (10 mg/kg) i.p. A catheter was implanted under aseptic conditions into the jugular vein to allow for multiple blood sampling. After recovery from general anesthesia, animals were housed individually under standard laboratory conditions in Makrolon type-3 cages with wire mesh tops and standardized softwood bedding. Animals had free access to water and food during the recovery period and the entire duration of the experiment.
Pharmacokinetic experiments were performed in Wistar rats (m=2-3) after jugular vein cannulation to allow for serial blood sampling. Test compounds were administered orally by gavage at doses of 10 mg/kg. Blood was then sampled at pre-defined time points over a period of 24 h and plasma prepared by centrifugation. Drug concentrations in plasma were quantified using liquid chromatography coupled to mass spectrometry (limit of quantification: 4.6 ng/mL). Pharmacokinetic evaluation was performed using non-compartmental analysis.

On to `NS(=O)(=O)Nc1ncnc(OCCOc2ncc(Br)cn2)c1-c1ccc(Br)cc1` [Compound of formula I, {5-(4-bromo-phenyl)-6-[2-(5-bromo-pyrimidin-2-yloxy)-ethoxy]-pyrimidin-4-yl}-sulfamide], for which the IC50 in series [1] was 3.7 nM. This molecule had a Kb at ETA receptors of 200 nM. In series [2], this molecule showed a half-life of 8.7 h and a clearance of 1.3 mL/min/kg.
In series [2], `CCCNS(=O)(=O)Nc1ncnc(OCCOc2ncc(Br)cn2)c1-c1ccc(Br)cc1` [Reference Compound, Propylsulfamic acid [5(4 bromo-phenyl)-6-[2-(5-bromo-pyrimidin-2-yloxy)-ethoxy]-pyrimidin-4-yl]-amide, reference compound] showed a half-life of 2.8 to 4.2 h and a clearance of 5.7 to 10 mL/min/kg.
